Here are results for 7 molecules from US8759256B2, “Herbicide composition comprising herbicide compound in acid form and acidifying agent” (priority 2001, dated 2014).

The conditions of data set [1]: cited from earlier work; for pKas: Table 1, acidic herbicide; for pKa: imidazolinone acids.
The test system of a further data set is corn. Briefly: greenhouse visual injury rating, Examples 9-10, corn. The following applies: Two Week. The format is in vivo. The source says: (§1) Each treatment in the experiment was replicated three times. An untreated control was also included in the experiment.
(§2) These treatments were compared to PCC-1190 and PCC-1189 without the addition of an acidifying agent, a standard imidazolinone acid formulation (PURSUIT and SCEPTER), and an untreated control.
(§3) For the experiments, greenhouse flats 26 cm by 6 cm deep were filled with Metro Mix 350 potting soil. The soil was pre-wetted before filling the flats. Six furrows were pressed into the soil in each flat using a custom designed form. Corn, tame oats, velvet leaf (not used in Example 10), wheat, pinto beans, and sunflower were planted in each tray. One species was planted in each of the six rows in each flat. Five seeds were planted in each row of corn, pinto bean, and sunflower. Six seeds were planted in each row of tame oat and wheat. Because velvet leaf seeds were so small, the seeds were sprinkled in each row and the number of such seeds were not counted. Each flat was covered with 2 cm of Metro Mix 350 potting soil and placed in the greenhouse. Greenhouse conditions were 28/20 C day/night temperatures and 16/8 h day/night periods. Light was supplemented with 400 W sodium halide lights. The plants were allowed to germinate and grow in the greenhouse for 2 weeks and then treated. Treatments were mixed using serial dilutions. Each dilution reduced the herbicide rate by one half. All acidifying agents (e.g., PCC-I174, LI-136, sulfuric acid, and phosphoric acid) were calculated and mixed to provide acid concentrations of 0.9%.
(§4) At the time of treatment, crops were at the following stages: corn—2 to 3 lf, tame oat—2 to 3 lf, velvet leaf 2 if (not used in Example 10), pinto bean—2-3 lf, wheat—4 to 5 lf, and sunflower-2 lf. Plants were treated using a greenhouse track sprayer equipped with an 8001E nozzle and calibrated to deliver 140 L ha-1 at the height of the crop canopy. Each treatment was simultaneously applied to three trays of plants, one for each replicate. After treatment, the plants were left in the head house to dry and then transferred to the greenhouse. Plants in each treatment were evaluated visually for injury 1 week and 2 weeks after treatment.
(§5) The injury caused by the herbicide treatment was rated visually. […] All the plants of each species in each replication were given a single rating. A rating of 0=no injury—the plants look the same as the untreated. A rating of 100=dead—usually highly necrotic, brown and no chance of producing seed.
(§6) The ingredients of the herbicide compositions as applied are listed in the following tables, and were diluted with water and used at the rates indicated for herbicide ingredients and acidifying agents.

The next data set relates to tame oat. Briefly: greenhouse visual injury rating, Examples 9-10, tame oat. The conditions noted are these: Two Week. The format is in vivo.
Description: as §1, §2, §3, §4, §5, §6

The test system of another data set is wheat. Briefly: greenhouse visual injury rating, Examples 9-10, wheat. The conditions noted are these: Two Week. The format is in vivo.
Description: as §1, §2, §3, §4, §5, §6

Another data set concerns pinto bean. Briefly: greenhouse visual injury rating, Examples 9-10, pinto bean. The format is in vivo. The conditions noted are these: Two Week.
Description: as §1, §2, §3, §4, §5, §6

The next data set deals with sunflower. Briefly: greenhouse visual injury rating, Examples 9-10, sunflower. Format: in vivo. The following applies: Two Week.
Description: as §1, §2, §3, §4, §5, §6

Setting [2] is: PCC-1189 0.031 LB AE/A + PHOSPHORIC ACID 2 % V/V.
Where [3] appears, read: PCC-1189 0.245 3 AE/A + PHOSPHORIC ACID 2 V/V.
Setting [4] is: PCC-1189 0.49 3 AE/A + PHOSPHORIC ACID 2 V/V.
[5] abbreviates: PCC-1189 .0155 LB AE/A + PHOSPHORIC ACID 2 % V/V.
Where [6] appears, read: PCC-1189 .0613 LB AE/A + PHOSPHORIC ACID 2 % V/V.
Setting [7] is: PCC-1189 .1225 LB AE/A + PHOSPHORIC ACID 2 % V/V.
The mark [8] stands for this setting: PCC-1189 0.031 LB AE/A + SULFURIC ACID 2 % V/V.
The mark [9] stands for this setting: PCC-1189 0.245 LB AE/A + SULFURIC ACID 2 % V/V.
Setting [10] is: PCC-1189 0.49 LB AE/A + SULFURIC ACID 2 % V/V.
[11] abbreviates: PCC-1189 .0155 LB AE/A + SULFURIC ACID 2 % V/V.
[12] abbreviates: PCC-1189 .0613 LB AE/A + SULFURIC ACID 2 % V/V.
Where [13] appears, read: PCC-1189 .1225 LB AE/A + SULFURIC ACID 2 % V/V.

Regarding `O=C(O)CCCOc1ccc(Cl)cc1Cl` [2,4-DB], in data set [1], the pKas is reported as 4.8.

Consider `CC(C)C1(C)N=C(c2nc3ccccc3cc2C(=O)O)NC1=O` (centres unmarked) [Imazaquin], for which, in data set [1], the pKas is on record as 3.8 and the pKa entry is recorded as “approximately 3.8”.

As to `CCc1cnc(C2=NC(C)(C(C)C)C(=O)N2)c(C(=O)O)c1` (centres unmarked) [Imazethapyr], in data set [1], the pKas is reported as 3.9 and the pKa entry is on record as “approximately 3.9”.

Turning to `O=P(O)(O)O` [PHOSPHORIC ACID], the “injury rated visually (0=no injury, 100=dead), Corn” value is given as 10.0 in the data set with corn (setting [2]); 10.0 in the data set with corn (setting [3]); 20.0 with corn (setting [4]); 10.0 with corn (setting [5]); 15.0 with corn (setting [6]); 10.0 in the data set with corn (setting [7]). Further, the “injury rated visually (0=no injury, 100=dead), Tame Oat” value with tame oat (setting [2]), in the data set on tame oat (setting [3]), in the data set with tame oat (setting [4]), in the data set on tame oat (setting [5]), in the data set with tame oat (setting [6]) and with tame oat (setting [7]) was 0.0 each time. Besides, the “injury rated visually (0=no injury, 100=dead), Wheat” value in the data set on wheat (setting [2]), in the data set with wheat (setting [3]), in the data set on wheat (setting [4]), with wheat (setting [5]), in the data set with wheat (setting [6]) and with wheat (setting [7]) was 0.0 in each case. Further, the “injury rated visually (0=no injury, 100=dead), Pinto Bean” value in the data set with pinto bean (setting [2]) amounted to 20.0; in the data set on pinto bean (setting [3]) it was 30.0; in the data set with pinto bean (setting [4]) it was 30.0; in the data set on pinto bean (setting [5]), 10.0; in the data set on pinto bean (setting [6]) it was 30.0; in the data set on pinto bean (setting [7]), 25.0. Moreover, the “injury rated visually (0=no injury, 100=dead), Sunflower” value with sunflower (setting [2]) worked out at 50.0; with sunflower (setting [3]), 60.0; in the data set with sunflower (setting [4]) it was 50.0; with sunflower (setting [5]), 50.0; in the data set on sunflower (setting [6]), 40.0; in the data set on sunflower (setting [7]) it was 50.0.

With `Nc1c(Cl)c(Cl)nc(C(=O)O)c1Cl` [Picloram], in data set [1], the pKas is listed as 2.3.

Take `O=S(=O)(O)O` [SULFURIC ACID]: the “injury rated visually (0=no injury, 100=dead), Corn” value amounted to 20.0 with corn (setting [8]); 20.0 with corn (setting [9]); 20.0 with corn (setting [10]); 10.0 in the data set with corn (setting [11]); 10.0 with corn (setting [12]); 10.0 with corn (setting [13]). For the same molecule, the “injury rated visually (0=no injury, 100=dead), Tame Oat” value in the data set on tame oat (setting [8]) was 0.0; in the data set with tame oat (setting [9]), 0.0; in the data set with tame oat (setting [10]) it was 10.0; in the data set with tame oat (setting [11]), 0.0; with tame oat (setting [12]), 0.0; in the data set on tame oat (setting [13]) it was 0.0. Moreover, the “injury rated visually (0=no injury, 100=dead), Wheat” value amounted to 0.0 in the data set with wheat (setting [8]); 0.0 in the data set on wheat (setting [9]); 10.0 in the data set on wheat (setting [10]); 0.0 in the data set with wheat (setting [11]); 0.0 with wheat (setting [12]); 0.0 in the data set on wheat (setting [13]). Moreover, the “injury rated visually (0=no injury, 100=dead), Pinto Bean” value with pinto bean (setting [8]) is listed as 10.0; in the data set on pinto bean (setting [9]), 20.0; in the data set on pinto bean (setting [10]) it was 30.0; with pinto bean (setting [11]) it was 10.0; in the data set with pinto bean (setting [12]), 0.0; in the data set with pinto bean (setting [13]), 10.0. The “injury rated visually (0=no injury, 100=dead), Sunflower” value with sunflower (setting [8]) is on record as 30.0; with sunflower (setting [9]), 60.0; in the data set on sunflower (setting [10]), 80.0; in the data set on sunflower (setting [11]), 30.0; in the data set with sunflower (setting [12]) it was 40.0; in the data set with sunflower (setting [13]) it was 40.0.

Turning to Imazamethbenz, in data set [1], the pKas is 2.9 and the pKa entry is on record as “approximately 2.9”.
